The target in one experiment is T1, recombinant BRD4 BD2 (Homo sapiens, UniProt O60885).
T1 construct: for recombinant BRD4 BD1 and BRD4 BD2 proteins
The experiment can be described thus: Competitive fluorescence-polarization (FP) binding assay, BRD4 BD2. Note: probe 1.5 nM. The following applies: competitive FP assay; protein 6 nM, probe […]; read-out: IC50 (nM) BRD4 BD2. In short, it runs like this: (§1)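 Buffer: 100 mM potassium phosphate, pH 6.5, 0.01% Triton X-100; compounds added in buffer with 40% ethylene glycol to preformed complex of fluorescent probe with BRD4 BD1 (10 nM final) or BD2 (6 nM final). After 30 min at room temperature, polarization read. IC50 from nonlinear fits of competition curves, with Ki.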

For a further experiment, the target named is T2, recombinant BRD4 BD1 (Homo sapiens, UniProt O60885).
T2 construct: for recombinant BRD4 BD1 and BRD4 BD2 proteins
The experiment in a line: Competitive fluorescence-polarization (FP) binding assay, BRD4 BD1. Note: probe 1.5 nM. To be noted: competitive FP assay; protein 10 nM, probe […]; read-out: IC50 (nM) BRD4 BD1. The method in brief: as §1

In the next experiment the test system is MOLM-13. The experiment can be described thus: Cell growth inhibition, MOLM-13 leukemia cells (CellTiter-Glo). Format: cell-based. The following applies: Homo sapiens, MOLM-13, 96 h; 4 days; read-out: IC50 (nM) MOLM-13 Cell Line (CellTiter-Glo assay). The method in brief: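 Luminescent ATP-based viability (CellTiter-Glo, 10-20 min at room temperature) in compound-treated MOLM-13 cells; the half-maximal inhibitory concentration was calculated from the readout.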

In a further experiment the test system is MDA-MB-436. The experiment can be described thus: Cell growth inhibition, MDA-MB-436 breast cancer cells (WST-8). The following applies: Homo sapiens, MDA-MB-436, 96 h; 4 days; read-out: IC50 (nM) MDA-MB-436 Cell Line (WST assay). It is filed as cell-based. In short, it runs like this:
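IC50 was computed from WST-8-based cell counting in MDA-MB-436 cells, with absorbance read at 450 nm.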
For orientation: Formazan colour is commonly taken as a measure of viable cells.

Data on 16 molecules can be found in patent publication US9580430B2, “9H-pyrimido[4,5-B]indoles and related analogs as BET bromodomain inhibitors” (THE REGENTS OF THE UNIVERSITY OF MICHIGAN, priority 2014, dated 2017).

As for `COc1cc2c(cc1-c1c(C)noc1C)[nH]c1nc(C)nc(Nc3ccnn3C(C)C)c12` [Cpd. No. 175, 7-(3,5-dimethylisoxazol-4-yl)-N-(1-isopropyl-1H-pyrazol-5-yl)-6-methoxy-2-methyl-9H-pyrimido[4,5-b]indol-4-amine], the IC50 – broadly, the concentration that inhibits the measured activity by half – came to 6.9 nM at recombinant BRD4 BD2, 28.7 nM on recombinant BRD4 BD1, 40.5 nM with MOLM-13 and 71 nM with MDA-MB-436.

On to `CCn1ncc(C)c1Nc1nc(C)nc2[nH]c3cc(-c4c(C)noc4C)c(OC)cc3c12` [Cpd. No. 176, 7-(3,5-dimethylisoxazol-4-yl)-N-(1-ethyl-4-methyl-1H-pyrazol-5-yl)-6-methoxy-2-methyl-9H-pyrimido[4,5-b]indol-4-amine], for which the IC50 was 10.3 nM on recombinant BRD4 BD2, 13.7 nM at recombinant BRD4 BD1, 52.9 nM in the experiment with MOLM-13 and 83.3 nM in the experiment on MDA-MB-436.

Turning to `COc1cc2c(cc1-c1c(C)noc1C)[nH]c1nc(C)nc(Nc3sc(C)nc3C)c12` [Cpd. No. 177, N-(7-(3,5-dimethylisoxazol-4-yl)-6-methoxy-2-methyl-9H-pyrimido[4,5-b]indol-4-yl)-2,4-dimethylthiazol-5-amine], the IC50 is 13.2 nM at recombinant BRD4 BD2, 7.9 nM at recombinant BRD4 BD1, 78.6 nM in the experiment on MOLM-13 and 110 nM in the experiment with MDA-MB-436.

On to `COc1cc2c(cc1-c1c(C)noc1C)[nH]c1nc(C)nc(Nc3ccnn3C3CCCC3)c12` [Cpd. No. 178, N-(1-cyclopentyl-1H-pyrazol-5-yl)-7-(3,5-dimethylisoxazol-4-yl)-6-methoxy-2-methyl-9H-pyrimido[4,5-b]indol-4-amine], for which the IC50 on recombinant BRD4 BD2 amounted to 0.6 nM; on recombinant BRD4 BD1, 9 nM; with MOLM-13 it was 22.5 nM; in the experiment with MDA-MB-436, 52.9 nM.

For `COc1cc2c(cc1-c1c(C)noc1C)[nH]c1nc(C)nc(Nc3cn(C)nc3C(F)(F)F)c12` [Cpd. No. 179, 7-(3,5-dimethylisoxazol-4-yl)-6-methoxy-2-methyl-N-(1-methyl-3-(trifluoromethyl)-1H-pyrazol-4-yl)-9H-pyrimido[4,5-b]indol-4-amine], the IC50 on recombinant BRD4 BD2 turned out to be 116 nM; on recombinant BRD4 BD1, 166 nM; in the experiment on MOLM-13 it was 2080 nM; with MDA-MB-436, 330 nM.

`COc1cc2c(cc1-c1c(C)noc1C)[nH]c1nc(C)nc(Nc3cn(C)nc3C(C)C)c12` [Cpd. No. 181, 7-(3,5-dimethylisoxazol-4-yl)-N-(3-isopropyl-1-methyl-1H-pyrazol-4-yl)-6-methoxy-2-methyl-9H-pyrimido[4,5-b]indol-4-amine]: the IC50 on recombinant BRD4 BD2 was 10.2 nM; at recombinant BRD4 BD1, 4.4 nM; in the experiment with MOLM-13, 22.2 nM; in the experiment with MDA-MB-436, 22.9 nM.

For `CCc1nn(C)cc1Nc1nc(C)nc2[nH]c3cc(-c4c(C)noc4C)c(OC)cc3c12` [Cpd. No. 182, 7-(3,5-dimethylisoxazol-4-yl)-N-(3-ethyl-1-methyl-1H-pyrazol-4-yl)-6-methoxy-2-methyl-9H-pyrimido[4,5-b]indol-4-amine], the IC50 on recombinant BRD4 BD2 was 23.6 nM; on recombinant BRD4 BD1, 15.6 nM; in the experiment with MOLM-13 it was 34.8 nM; in the experiment with MDA-MB-436, 98 nM.

On to `COc1cc2c(cc1-c1c(C)noc1C)[nH]c1nc(C)nc(Nc3ccnn3C(C)(C)C)c12` [Cpd. No. 183, N-(1-(tert-butyl)-1H-pyrazol-5-yl)-7-(3,5-dimethylisoxazol-4-yl)-6-methoxy-2-methyl-9H-pyrimido[4,5-b]indol-4-amine], for which the concentration for half-maximal inhibition (IC50) was 6.1 nM on recombinant BRD4 BD2, 9.6 nM at recombinant BRD4 BD1, 29.7 nM with MOLM-13 and 83.7 nM in the experiment with MDA-MB-436.

Regarding `CCn1nc(C)c(C)c1Nc1nc(C)nc2[nH]c3cc(-c4c(C)noc4C)c(OC)cc3c12` [Cpd. No. 186, 7-(3,5-dimethylisoxazol-4-yl)-N-(1-ethyl-3,4-dimethyl-1H-pyrazol-5-yl)-6-methoxy-2-methyl-9H-pyrimido[4,5-b]indol-4-amine], the IC50 was 55.1 nM on recombinant BRD4 BD2, 33.9 nM at recombinant BRD4 BD1, 27.1 nM in the experiment with MOLM-13 and 132 nM with MDA-MB-436.

As for `COc1cc2c(cc1-c1c(C)noc1C)[nH]c1nc(C)nc(Nc3c(C)c(C)nn3C3CCC3)c12` [Cpd. No. 187, N-(1-cyclobutyl-3,4-dimethyl-1H-pyrazol-5-yl)-7-(3,5-dimethylisoxazol-4-yl)-6-methoxy-2-methyl-9H-pyrimido[4,5-b]indol-4-amine], the IC50 on recombinant BRD4 BD2 amounted to 10.9 nM; at recombinant BRD4 BD1, 10.5 nM; with MOLM-13 it was 38.8 nM; in the experiment with MDA-MB-436, 121 nM.

In the case of `COc1cc2c(cc1-c1c(C)noc1C)[nH]c1nc(C)nc(Nc3c(C)c(C)nn3C3CC3)c12` [Cpd. No. 188, N-(1-cyclopropyl-3,4-dimethyl-1H-pyrazol-5-yl)-7-(3,5-dimethylisoxazol-4-yl)-6-methoxy-2-methyl-9H-pyrimido[4,5-b]indol-4-amine], the IC50 at recombinant BRD4 BD2 turned out to be 3.7 nM; on recombinant BRD4 BD1, 2.1 nM; with MOLM-13, 3.2 nM; in the experiment on MDA-MB-436, 12.8 nM.

Consider `COc1cc2c(cc1-c1c(C)noc1C)[nH]c1nc(C)nc(Nc3cc(C)nn3C3CC3)c12` [Cpd. No. 192, N-(1-cyclopropyl-3-methyl-1H-pyrazol-5-yl)-7-(3,5-dimethylisoxazol-4-yl)-6-methoxy-2-methyl-9H-pyrimido[4,5-b]indol-4-amine], for which the IC50 on recombinant BRD4 BD2 turned out to be 114 nM; on recombinant BRD4 BD1, 30.1 nM; with MOLM-13, 114 nM; in the experiment with MDA-MB-436, 422 nM.

For the molecule `COc1cc2c(cc1-c1c(C)noc1C)[nH]c1nc(C)nc(Nc3cn(C)nc3C(C)(C)C)c12` [Cpd. No. 193, N-(3-(tert-butyl)-1-methyl-1H-pyrazol-4-yl)-7-(3,5-dimethylisoxazol-4-yl)-6-methoxy-2-methyl-9H-pyrimido[4,5-b]indol-4-amine], the IC50 is 2.7 nM on recombinant BRD4 BD2, 3.6 nM at recombinant BRD4 BD1, 8.1 nM with MOLM-13 and 47.5 nM in the experiment on MDA-MB-436.

On to `COc1cc2c(cc1-c1c(C)noc1C)[nH]c1nc(C)nc(Nc3c(C(C)C)nn(C)c3C)c12` [Cpd. No. 194, 7-(3,5-dimethylisoxazol-4-yl)-N-(3-isopropyl-1,5-dimethyl-1H-pyrazol-4-yl)-6-methoxy-2-methyl-9H-pyrimido[4,5-b]indol-4-amine], for which the IC50 at recombinant BRD4 BD2 is 14.2 nM; at recombinant BRD4 BD1, 10.1 nM; with MOLM-13, 13.2 nM; with MDA-MB-436, 59.6 nM.

As to `COc1cc2c(cc1-c1c(C)noc1C)[nH]c1nc(C)nc(Nc3cn(C)nc3C3CC3)c12` [Cpd. No. 195, N-(3-cyclopropyl-1-methyl-1H-pyrazol-4-yl)-7-(3,5-dimethylisoxazol-4-yl)-6-methoxy-2-methyl-9H-pyrimido[4,5-b]indol-4-amine], the IC50 turned out to be 14.4 nM on recombinant BRD4 BD2, 16.6 nM at recombinant BRD4 BD1, 29.1 nM in the experiment on MOLM-13 and 75.1 nM in the experiment on MDA-MB-436.

Regarding `COc1cc2c(cc1-c1c(C)noc1C)[nH]c1nc(C)nc(Nc3c(C)cnn3C(C)(C)C)c12` [Cpd. No. 196, N-(1-(tert-butyl)-4-methyl-1H-pyrazol-5-yl)-7-(3,5-dimethylisoxazol-4-yl)-6-methoxy-2-methyl-9H-pyrimido[4,5-b]indol-4-amine], the IC50 came to 7.5 nM on recombinant BRD4 BD2, 10 nM at recombinant BRD4 BD1, 32.7 nM with MOLM-13 and 52.5 nM in the experiment on MDA-MB-436.
